Reference: patent publication US20250144087A1, “USE OF VE607 FOR THE TREATMENT OF SARS-COV-2 INFECTIONS AND RELATED DISEASES” (priority 2022, published 2025)

What was measured:
[1] = tested on: pseudoviral particles expressing the Spike from SARS-CoV-2; assay: microbe, parasite or virus in culture; assay type: cell-based
[2] = target: T1, SARS-CoV-2 RBD (Severe acute respiratory syndrome coronavirus 2, UniProt P0DTC2); assay type: binding
T1 construct: hexahistidine (C); made in house; host or cells: FreeStyle 293 F cells

[3] = tested on: SARS-CoV-2 S glycoprotein
[4] = tested on: pseudoviral particles bearing the VSV-G; assay: microbe, parasite or virus in culture; assay type: cell-based; details: Vesicular stomatitis virus, HEK-293T
[5] = tested on: pseudoviral particles bearing the SARS-CoV-1 Spike; assay: microbe, parasite or virus in culture; assay type: cell-based; details: Severe acute respiratory syndrome coronavirus, HEK-293T
[6] = tested on: VERO-E6 cells; assay: Toxicity on VERO-E6 cells, AquaVivid staining; details: concentrations up to 100 μM

## O[C@H](COc1cccc(OC[C@H](O)CN2CCCCC2)c1)CN1CCCCC1 [(R,S)-VE607]
[1]; SARS-CoV-2 S pseudoviral particles
  fold less potent than the two other enantiomers in SARS-CoV-2 pseudoviral inhibition: about 2 fold

## CN1CCN(c2ccc(CNC(=O)c3ccno3)cc2)CC1 [SSAA09E2, reference compound]
[2]
  ΔTm (change of melting temperature of RBD): −0.7 °C
[1]
  effect on the infection of pseudoviral particles: no effect

## C=CCC(/C=C/OCC(O)CN(CC)CCC)OCC(O)CN(CC)CCC (stereo not shown) [VE607]
[3]
  effect on Spike conformational landscape (up/down): stabilized the “up” conformation
[4]
  IC50: > 100 µM
[2]
  ΔTm (change of melting temperature of RBD): −2.3 °C
[5]
  IC50: 1.47 µM
[6]
  toxicity: no toxicity was observed
[1]; Severe acute respiratory syndrome coronavirus 2, HEK-293T
  IC50: 3.06 µM

## sACE2
[3]
  effect on Spike conformational landscape (up/down): shifted the conformational landscape of the Spike to the “up” conformation
